The test system of assay [1] is Monoclonal antibody (mAb). The experiment in a line: Binding affinity against murine monoclonal antibody (mAb)-40-50.
In assay [2] the test system is Monoclonal antibody (mAb). As to the kind of experiment: Binding affinity against human monoclonal antibody (mAb)-7F2.
Assay [3] has as its system Monoclonal antibody (mAb). The experiment in a line: Binding affinity against human monoclonal antibody (mAb)-11E6.
In assay [4] the test system is Monoclonal antibody (mAb). The experiment in a line: Binding affinity against human monoclonal antibody (mAb)-1B3.
For assay [5], the system named is Monoclonal antibody (mAb). The experiment in a line: Binding affinity against human monoclonal antibody (mAb)-5C2.
Assay [6] concerns the target Monoclonal antibody (mAb). The experiment in a line: Binding affinity against Monoclonal antibody mAB-1B3 using [3H]digoxin as radioligand.
The target of assay [7] is Monoclonal antibody (mAb). As to the kind of experiment: Binding affinity against Monoclonal antibody mAB-1B3 using [3H]digitoxin as radioligand.

Among the data in ChEMBL document CHEMBL1135516, “Three-dimensional quantitative structure-activity relationship analysis of ligand binding to human sequence antidigoxin monoclonal antibodies using comparative molecular field analysis” (J Med Chem, 2002) are Relative Ki, IC50 ratio and Ki values, retold here.

What is called Ki is the dissociation constant of the complex between target and ligand, obtained from inhibition or displacement. Higher therefore signals a looser hold on the target.

Molecules are shown by their SMILES. Active and inactive are the calls of the source. The calls are words filed in the database; no cut-off is given here.

As for `C[C@]12CC[C@H](O)C[C@H]1CC[C@@H]1[C@@H]2C[C@@H](O)[C@]2(C)[C@@H]([C@@H]3COC(=O)C3)CC[C@]12O`, the Relative Ki in assay [1] came out at 300.
As for `C[C@@H]1O[C@@H](O[C@H]2C[C@@H](O)[C@]3(CO)[C@H]4[C@H](O)C[C@]5(C)[C@@H](C6=CC(=O)OC6)CC[C@]5(O)[C@@H]4CC[C@]3(O)C2)[C@H](O)[C@H](O)[C@H]1O`, the IC50 ratio is 39000 in assay [2], 38000 in assay [3], 4100 in assay [4] and “No inhibition” in assay [5]. In addition, the Relative Ki in assay [1] is 7.
As for `CC(=O)[C@H]1CC[C@H]2[C@@H]3CCC4=CC(=O)CC[C@]4(C)[C@H]3CC[C@]12C` [PROGESTERONE], in assay [6], the Ki is 36000 nM. The IC50 ratio in assay [2] came to 69; in assay [3] it was 100; in assay [4] it was 36000; in assay [5], 55.
As for `CC(=O)O[C@@H]1C[C@H]2[C@@H](CC[C@@H]3C[C@@H](O[C@H]4C[C@H](O)[C@H](O[C@H]5C[C@H](O)[C@H](O[C@H]6C[C@H](O)[C@H](O)[C@@H](C)O6)[C@@H](C)O5)[C@@H](C)O4)CC[C@@]32C)[C@@]2(O)CCC(C3=CC(=O)OC3)[C@@]12C` (some centres not stated), in assay [1], the Relative Ki worked out at 0.5.
Consider `CO[C@H]1C[C@H](O[C@H]2CC[C@@]3(C)[C@H](CC[C@@H]4[C@@H]3CC[C@]3(C)[C@@H](C5=CC(=O)OC5)[C@@H](OC(C)=O)C[C@]43O)C2)O[C@@H](C)[C@@H]1O`, for which the IC50 ratio in assay [2] was 3200; in assay [3], 3100; in assay [4] it was 180; in assay [5] it was “No inhibition”. This molecule also showed a Relative Ki in assay [1] of 200.
In assay [1], `CC(=O)O[C@H]1C[C@]2(O)[C@@H]3CC[C@@H]4C[C@@H](O)CC[C@]4(C)[C@H]3CC[C@]2(C)[C@H]1C1=CC(=O)OC1` had a Relative Ki of 8600.
`C[C@]12CC[C@H]3[C@@H](CC[C@]4(O)C[C@@H](O)CC[C@]34C=O)[C@@]1(O)CC[C@@H]2C1=CC(=O)OC1`: the IC50 ratio stood at 84 in assay [2], 66 in assay [3], 3000 in assay [4] and 470 in assay [5]. For the same molecule, in assay [1], the Relative Ki was 4.
Taken in the same sequence, the figures for `CC(=O)O[C@H]1CC[C@]2(C=O)[C@H]3CC[C@]4(C)[C@@H](C5=CC(=O)OC5)CC[C@]4(O)[C@@H]3CC[C@]2(O)C1` were 17, 18, 600, 44 and 10.
In turn, `CO[C@H]1[C@@H](O)[C@@H](C)O[C@@H](O[C@H]2CC[C@@]3(C)[C@H](CC[C@@H]4[C@@H]3CC[C@]3(C)[C@@H](C5=CC(=O)OC5)C(O)C[C@]43O)C2)[C@@H]1O` (some centres not stated) yielded a Relative Ki in assay [1] of 35.
On the same count and under the same terms, as for `C[C@]12CC[C@@H](O)C[C@H]1CC[C@@H]1[C@@H]2C[C@@H](O)[C@]2(C)[C@@H](C3=CC(=O)OC3)CCC12O` (some centres not stated), the figure is 12.
On to `CC(=O)O[C@H]1C[C@]2(O)[C@@H]3CC[C@@H]4C[C@@H](O[C@@H]5C[C@H](O)[C@H](O[C@H]6C[C@H](O)[C@H](O[C@H]7C[C@H](O)[C@H](O)[C@@H](C)O7)[C@@H](C)O6)[C@@H](C)O5)CC[C@]4(C)[C@H]3CC[C@]2(C)[C@H]1C1=CC(=O)OC1`, for which the IC50 ratio worked out at 330 in assay [2], 400 in assay [3], 49 in assay [4] and 290 in assay [5]. The molecule also gave a Relative Ki in assay [1] of 58.
Taken in the same sequence, the figures for `C[C@H]1O[C@@H](O[C@H]2CC[C@@]3(C)[C@H](CC[C@@H]4[C@@H]3C[C@@H](O)[C@]3(C)[C@@H](C5=CC(=O)OC5)CC[C@]43O)C2)C[C@H](O)[C@@H]1O` were 1, 0.9, 5.9, 1.3 and 0.6.
In assay [1], `C[C@]12CC[C@H]3[C@@H](CC[C@]4(O)C[C@@H](O)CC[C@]34CO)[C@@]1(O)CC[C@@H]2C1=CC(=O)OC1` came in with a Relative Ki of 4.
As for `C[C@]12C[C@@H](O)[C@H]3[C@@H](CC[C@]4(O)C[C@@H](O)C[C@@H](O)[C@]34CO)[C@@]1(O)CC[C@@H]2C1=CC(=O)OC1`, the IC50 ratio in assay [2] was 13000; in assay [3], 6600; in assay [4], 52000; in assay [5] it was “No inhibition”. The molecule also yielded a Relative Ki in assay [1] of 9.
Consider `C[C@]12CC[C@H](O)C[C@H]1CC[C@@H]1[C@@H]2C[C@@H](O)[C@]2(C)[C@@H](C3=CC(=O)OC3)CC[C@]12O` [DIGOXIGENIN], for which the Ki came to 3100 nM in assay [6] and 1700 nM in assay [7]. Also, the IC50 ratio in assay [2] is 4.6; in assay [3] it was 6.2; in assay [4], 2700; in assay [5], 2.9. Also, the Relative Ki in assay [1] came to 2.
Regarding `C[C@H]1O[C@@H](O[C@H]2[C@@H](O)C[C@H](O[C@H]3[C@@H](O)C[C@@H](O[C@H]4CC[C@@]5(C)[C@H](CC[C@@H]6[C@@H]5C[C@@H](O)[C@]5(C)[C@@H](C7=CC(=O)OC7)[C@@H](O)C[C@]65O)C4)O[C@@H]3C)O[C@@H]2C)C[C@H](O)[C@@H]1O`, the Relative Ki in assay [1] came to 33.
Molecule `C[C@H]1O[C@@H](O[C@H]2[C@@H](O)C[C@H](O[C@H]3[C@@H](O)C[C@@H](O[C@H]4CC[C@@]5(C)[C@H](CC[C@@H]6[C@@H]5C[C@@H](O)[C@]5(C)[C@@H](C7=CC(=O)OC7)CC[C@]65O)C4)O[C@@H]3C)O[C@@H]2C)C[C@H](O)[C@@H]1O` yielded a Relative Ki in assay [1] of 280.
With `C[C@]12CC[C@H](O)C[C@H]1CC[C@@H]1[C@@H]2CC[C@]2(C)[C@@H](C3=CC(=O)OC3)[C@@H](O)C[C@]12O`, the IC50 ratio came out at 2000 in assay [2], 2100 in assay [3], 4700 in assay [4] and 2700 in assay [5]. The same molecule yielded a Relative Ki in assay [1] of 93.
Turning to `C[C@]12CC[C@H](O)C[C@H]1CC[C@@H]1[C@@H]2CC[C@]2(C)[C@@H](C3=CC(=O)OC3)CC[C@]12O` [DIGITOXIGENIN], the Ki was found to be 1000 nM in assay [6] and 880 nM in assay [7]. For the same molecule, the IC50 ratio in assay [2] is 16; in assay [3] it was 14; in assay [4] it was 1800; in assay [5] it was 14. This molecule also displayed a Relative Ki in assay [1] of 2.
On to `C[C@@H]1O[C@H](O[C@H]2CC[C@@]3(C)[C@H](CC[C@@H]4[C@@H]3CC[C@]3(C)[C@@H](C5=CC(=O)OC5)CC[C@]43O)C2)[C@@H](O)[C@@H](O)[C@@H]1O`, for which the IC50 ratio came out at 22 in assay [2], 29 in assay [3], 40 in assay [4] and 21 in assay [5]. For the same molecule, the Relative Ki in assay [1] was found to be 0.6.
The corresponding values for `C[C@H]1O[C@@H](O[C@H]2[C@@H](O)C[C@H](O[C@H]3[C@@H](O)C[C@H](O[C@H]4CC[C@@]5(C)[C@H](CC[C@@H]6[C@@H]5CC[C@]5(C)[C@@H](C7=CC(=O)OC7)[C@@H](O)C[C@]65O)C4)O[C@@H]3C)O[C@@H]2C)C[C@H](O)[C@@H]1O` are 81, 73, 11, 130 and 16.
On to `C[C@]12CCC(=O)C=C1CC[C@@H]1[C@@H]2C(=O)C[C@@]2(C)[C@H]1CC[C@]2(O)C(=O)CO`, for which the IC50 ratio entry in assay [2], in assay [3], in assay [4] and in assay [5] was “No inhibition” throughout.
In the case of `CC(=O)O[C@H]1CC[C@@]2(C)[C@H](CC[C@@H]3[C@@H]2CC[C@]2(C)[C@@H](C4=CC(=O)OC4)[C@@H](O)C[C@]32O)C1`, the Relative Ki in assay [1] is 74.
On to `C[C@H]1O[C@@H](O[C@H]2[C@@H](O)C[C@H](O[C@H]3[C@@H](O)C[C@H](O[C@H]4CC[C@@]5(C)[C@H](CC[C@@H]6[C@@H]5CC[C@]5(C)[C@@H](C7=CC(=O)OC7)[C@@H](OC=O)C[C@]65O)C4)O[C@@H]3C)O[C@@H]2C)C[C@H](O)[C@@H]1O`, for which, in assay [1], the Relative Ki was determined as 35.
The same measure, in the same setting: as for `CC(=O)O[C@H]1C[C@]2(O)[C@@H]3CC[C@@H]4C[C@@H](O[C@H]5C[C@H](O)[C@H](O)[C@@H](C)O5)CC[C@]4(C)[C@H]3CC[C@]2(C)[C@H]1C1=CC(=O)OC1`, the figure is 4.
`CO[C@H]1[C@H](O)[C@H](O[C@H]2CC[C@@]3(C)[C@H](CC[C@@H]4[C@@H]3CC[C@]3(C)[C@@H](C5=CC(=O)OC5)CC[C@]43O)C2)O[C@@H](C)[C@@H]1O`: the IC50 ratio in assay [2] was 9.5; in assay [3], 17; in assay [4], 69; in assay [5] it was 21. The same molecule showed a Relative Ki in assay [1] of 1.
Taken in the same sequence, the figures for `CC(=O)O[C@H]1CC[C@@]2(C)[C@H](CC[C@@H]3[C@@H]2C[C@@H](O)[C@]2(C)[C@@H](C4=CC(=O)OC4)CC[C@]32O)C1` were 110, 96, 70, 140 and 0.7.
`C[C@@H]1O[C@@H](O[C@@H]2C=C3CC[C@@H]4[C@H](CC[C@]5(C)[C@@H](c6ccc(=O)oc6)CC[C@]45O)[C@@]3(C)CC2)[C@H](O)[C@H](O)[C@H]1O`: the IC50 ratio was determined as 69 in assay [2], 800 in assay [3], 670 in assay [4] and 400 in assay [5].
The corresponding values for `C[C@]12CC[C@@H]3c4ccc(O)cc4CC[C@H]3[C@@H]1CC[C@@H]2O` are “inactive”, “inactive”, “inactive” and “inactive”.
The corresponding values for `C[C@]12CC[C@H](O)C[C@H]1CC[C@@H]1[C@@H]2CC[C@]2(C)[C@@H](c3ccc(=O)oc3)CC[C@]12O` are 550, 260, 6700 and 250.
For the molecule `CO[C@@H]1[C@H](O)[C@@H](O[C@@H]2C[C@H]3CC[C@@H]4[C@H](CC[C@]5(C)[C@@H](C6=CC(=O)OC6)CC[C@]45O)[C@@]3(C)[C@H](O)C2)O[C@@H](C)[C@@H]1O`, the Relative Ki in assay [1] worked out at 0.5.
